From ChEMBL document CHEMBL1142443, “Design and synthesis of reboxetine analogs morpholine derivatives as selective norepinephrine reuptake inhibitors” (Bioorg Med Chem Lett, 2008) come the findings set out here.

Assay [1] deals with Sodium-dependent noradrenaline transporter (Homo sapiens) (UniProt P23975). As to the kind of experiment: Binding affinity at NET.
Assay [2] deals with Sodium-dependent serotonin transporter (Homo sapiens) (UniProt P31645). As to the kind of experiment: Binding affinity at SERT.
Sequence of Sodium-dependent serotonin transporter (Homo sapiens) (P31645 whole entry, looked up): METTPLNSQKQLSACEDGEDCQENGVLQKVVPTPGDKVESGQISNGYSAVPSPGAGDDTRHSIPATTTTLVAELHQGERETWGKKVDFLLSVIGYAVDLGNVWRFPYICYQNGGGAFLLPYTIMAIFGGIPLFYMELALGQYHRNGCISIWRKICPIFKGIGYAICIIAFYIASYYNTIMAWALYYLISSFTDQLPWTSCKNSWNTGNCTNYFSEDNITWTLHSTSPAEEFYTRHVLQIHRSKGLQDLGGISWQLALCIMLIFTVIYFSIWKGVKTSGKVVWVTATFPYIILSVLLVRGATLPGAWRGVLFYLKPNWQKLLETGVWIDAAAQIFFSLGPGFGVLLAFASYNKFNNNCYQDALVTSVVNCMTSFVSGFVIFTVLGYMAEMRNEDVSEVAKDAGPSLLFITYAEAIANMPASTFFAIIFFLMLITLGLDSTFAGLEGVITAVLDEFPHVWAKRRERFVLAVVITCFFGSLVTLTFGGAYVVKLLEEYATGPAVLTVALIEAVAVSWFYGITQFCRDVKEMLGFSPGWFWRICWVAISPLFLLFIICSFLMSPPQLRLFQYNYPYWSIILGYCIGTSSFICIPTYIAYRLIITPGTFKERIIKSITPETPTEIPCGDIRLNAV

Sequence of Sodium-dependent noradrenaline transporter (Homo sapiens) (P23975 whole entry): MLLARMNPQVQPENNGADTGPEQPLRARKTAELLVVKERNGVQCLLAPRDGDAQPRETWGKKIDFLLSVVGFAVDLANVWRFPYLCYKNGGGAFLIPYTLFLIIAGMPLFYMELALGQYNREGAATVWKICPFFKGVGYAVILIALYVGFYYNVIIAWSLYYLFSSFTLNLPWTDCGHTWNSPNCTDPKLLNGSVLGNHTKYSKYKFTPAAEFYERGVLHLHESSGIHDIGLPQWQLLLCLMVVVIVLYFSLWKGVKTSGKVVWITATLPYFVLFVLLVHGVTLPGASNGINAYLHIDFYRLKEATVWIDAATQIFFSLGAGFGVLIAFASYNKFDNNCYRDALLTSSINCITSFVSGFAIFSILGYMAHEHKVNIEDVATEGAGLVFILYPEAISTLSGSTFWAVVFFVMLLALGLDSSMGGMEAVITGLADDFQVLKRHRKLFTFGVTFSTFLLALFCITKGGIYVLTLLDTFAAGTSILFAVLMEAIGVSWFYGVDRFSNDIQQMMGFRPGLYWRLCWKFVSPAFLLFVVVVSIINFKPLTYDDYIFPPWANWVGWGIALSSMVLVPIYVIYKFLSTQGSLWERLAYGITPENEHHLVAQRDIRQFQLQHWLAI

Consider `Fc1cccc(F)c1O[C@@H](C1=CCCC1)[C@@H]1CNCCO1`, for which the Activity is 20 nM in assay [1] and 3700 nM in assay [2].

For the compound `Fc1ccc(O[C@@H](c2ccccc2)[C@@H]2CNCCO2)c(F)c1`, the Activity in assay [1] worked out at 16 nM; in assay [2], 617 nM.

`Cc1ccc(C(C)C)c(O[C@@H](c2ccccn2)[C@@H]2CNCCO2)c1`: the Activity is 457 nM in assay [1] and above 8400 nM in assay [2].

`Fc1cccc(F)c1O[C@@H](c1ccccc1)[C@@H]1CNCCO1`: the Activity in assay [1] was 7 nM; in assay [2], 1210 nM.

On to `Cc1coc([C@H](Oc2c(F)cccc2F)[C@@H]2CNCCO2)n1` (stereo in doubt; form 2), for which the results for the Activity in assay [1] and in assay [2] were 19 nM and above 10000 nM, respectively.

`N#Cc1ccccc1O[C@@H](c1ccccc1)[C@@H]1CNCCO1`: the Activity in assay [1] was 18 nM; in assay [2], above 10000 nM.

Turning to `Fc1ccc(O[C@@H](c2ccccc2)[C@@H]2CNCCO2)cc1`, the Activity was determined as 21 nM in assay [1] and 1620 nM in assay [2].

With `Fc1cccc(F)c1O[C@@H](c1cccc2c1OCC2)[C@@H]1CNCCO1`, the Activity in assay [1] is 13 nM; in assay [2] it was 445 nM.

For the compound `CCOc1ccccc1O[C@@H](c1ncccc1C)[C@@H]1CNCCO1`, the Activity in assay [1] is 27 nM; in assay [2], 3680 nM.

Regarding `Fc1cccc(F)c1O[C@@H](c1ccccn1)[C@@H]1CNCCO1`, the Activity in assay [1] was 6 nM; in assay [2], 8980 nM.

Turning to `Fc1cccc(F)c1O[C@@H](Cc1ccccc1)[C@@H]1CNCCO1`, the Activity was determined as 66 nM in assay [1] and 912 nM in assay [2].

On to `c1ccc([C@H](Oc2ccccc2C2CC2)[C@H]2CNCCO2)cc1`, for which the figures for the Activity in assay [1] and in assay [2] were 35 nM and 75 nM, respectively.

Consider `Cc1coc([C@H](Oc2c(F)cccc2F)[C@@H]2CNCCO2)n1` (stereo in doubt; form 1), for which the figures for the Activity in assay [1] and in assay [2] were 18 nM and above 4500 nM, respectively.

Regarding `CCOc1cccc(F)c1O[C@@H](c1ccccc1)[C@@H]1CNCCO1`, the Activity in assay [1] was determined as 4 nM; in assay [2], 2570 nM.

With `Cc1coc([C@@H](Oc2c(F)cccc2F)[C@@H]2CNCCO2)n1`, the Activity in assay [1] is 6940 nM; in assay [2] it was above 10000 nM.

With `Brc1ccccc1O[C@@H](c1ccccc1)[C@H]1CNCCO1`, the results for the Activity in assay [1] and in assay [2] were 17 nM and 105 nM, respectively.

As for `COc1cccc(F)c1O[C@@H](c1ccccc1)[C@@H]1CNCCO1`, the Activity is 2 nM in assay [1] and above 3500 nM in assay [2].

Consider `Fc1cccc(F)c1O[C@@H](c1nccs1)[C@@H]1CNCCO1`, for which the Activity is 19 nM in assay [1] and above 10000 nM in assay [2].

As to `CCOc1ccccc1O[C@@H](c1cccnc1)[C@@H]1CNCCO1`, the Activity in assay [1] was 114 nM; in assay [2], above 10000 nM.

Take `Fc1cccc(F)c1O[C@H](C1=CCCC1)[C@@H]1CNCCO1`: the Activity amounted to 2570 nM in assay [1] and 2530 nM in assay [2].

As for `Brc1ccccc1O[C@@H](c1ccccc1)[C@@H]1CNCCO1`, the Activity in assay [1] was 3 nM; in assay [2], 477 nM.

In the case of `Fc1cccc(OC(c2ccccc2)C2CNCCO2)c1` (stereo not drawn), the Activity turned out to be 11 nM in assay [1] and 13 nM in assay [2].

For the compound `CS(=O)(=O)c1ccccc1O[C@@H](c1ccccc1)[C@@H]1CNCCO1`, the results for the Activity in assay [1] and in assay [2] were 1360 nM and above 10000 nM, respectively.

For the compound `CCOc1ccccc1O[C@@H](c1cccc(OC)n1)[C@@H]1CNCCO1`, the Activity in assay [1] stood at 28 nM; in assay [2] it was 676 nM.

Turning to `Fc1cccc(F)c1O[C@@H](c1ncco1)[C@@H]1CNCCO1`, the Activity in assay [1] is 9 nM; in assay [2], above 10000 nM.

Regarding `c1ccc([C@H](Oc2ccccc2C2CC2)[C@@H]2CNCCO2)cc1`, the figures for the Activity in assay [1] and in assay [2] were 2 nM and 482 nM, respectively.

For the compound `Fc1ccccc1O[C@@H](c1ccccc1)[C@@H]1CNCCO1`, the Activity amounted to 7 nM in assay [1] and 6390 nM in assay [2].

On to `CCOc1ccccc1O[C@@H](c1ccccn1)[C@@H]1CNCCO1`, for which the Activity was 7 nM in assay [1] and 6910 nM in assay [2].

As for `CCOc1ccccc1O[C@@H](c1ccc(CC)cn1)[C@@H]1CNCCO1`, the Activity worked out at 49 nM in assay [1] and 8210 nM in assay [2].
